Like-named read-outs stand apart in the source and are kept apart here.
Columns and labels:
P. aeruginosa = assay: MIC, broth microdilution, CDC/FDA Antibiotic Resistance Isolate Bank (Example 7, Tables 10, 15); type: cell-based; conditions: Pseudomonas aeruginosa; for MIC: read-out: MIC
A. baumannii = assay: MIC, broth microdilution, CDC/FDA Antibiotic Resistance Isolate Bank (Example 7, Tables 9, 13, 14); type: cell-based, Acinetobacter baumannii; conditions: for MIC: read-out: MIC

C[C@@H](O)[C@H]1C(=O)N2C(C(=O)O)=C(S[C@@H]3CN[C@H](C(=O)N(C)C)C3)[C@H](C)[C@H]12 [MEPM, meropenem]
0.5 µg/mL: MIC (P. aeruginosa; KUB No. 5815, AR Bank #510, no carbapenemase gene)
32 µg/mL: MIC (P. aeruginosa; KUB No. 5818, AR Bank #513, no carbapenemase gene) | MIC (P. aeruginosa; KUB No. 5820, AR Bank #515, no carbapenemase gene) | MIC50 (A. baumannii; 55 isolates of A. baumannii) | MIC (A. baumannii; Acinetobacter baumannii, A. baumannii KUB No. 5575, AR Bank #78, OXA-71) | MIC (A. baumannii; Acinetobacter baumannii, A. baumannii KUB No. 5706, AR Bank #273, OXA-23, OXA-66) | MIC (A. baumannii; Acinetobacter baumannii, A. baumannii KUB No. 5708, AR Bank #275, OXA-23, OXA-66) | MIC (A. baumannii; Acinetobacter baumannii, A. baumannii KUB No. 5711, AR Bank #278, OXA-23, OXA-66) | MIC (A. baumannii; Acinetobacter baumannii, A. baumannii KUB No. 5712, AR Bank #279, OXA-23, OXA-66) | MIC (A. baumannii; Acinetobacter baumannii, A. baumannii KUB No. 5715, AR Bank #282, OXA-23, OXA-66) | MIC (A. baumannii; Acinetobacter baumannii, A. baumannii KUB No. 5716, AR Bank #283, OXA-23, OXA-66) | MIC (A. baumannii; Acinetobacter baumannii, A. baumannii KUB No. 5723, AR Bank #90, OXA-23, OXA-66) | MIC (A. baumannii; Acinetobacter baumannii, A. baumannii KUB No. 5724, AR Bank #291, OXA-23, OXA-66) | MIC (A. baumannii; Acinetobacter baumannii, A. baumannii KUB No. 5727, AR Bank #294, OXA-23, OXA-65) | MIC (A. baumannii; Acinetobacter baumannii, A. baumannii KUB No. 5728, AR Bank #295, OXA-23, OXA-66) | MIC (A. baumannii; Acinetobacter baumannii, A. baumannii KUB No. 5732, AR Bank #299, OXA-23, OXA-203) | MIC (A. baumannii; Acinetobacter baumannii, A. baumannii KUB No. 5735, AR Bank #302, OXA-23, OXA-82) | MIC (A. baumannii; Acinetobacter baumannii, A. baumannii KUB No. 5742, AR Bank #309, OXA-23, OXA-82) | MIC (A. baumannii; Acinetobacter baumannii, A. baumannii KUB No. 5743, AR Bank #310, OXA-23, OXA-82) | MIC (A. baumannii; Acinetobacter baumannii, A. baumannii KUB No. 5744, AR Bank #311, OXA-23, OXA-82) | MIC50 (A. baumannii; Acinetobacter baumannii, 55 strains of A. baumannii, read-out: MIC50)
64 µg/mL: MIC (P. aeruginosa; KUB No. 5799, AR Bank #456, no carbapenemase gene) | MIC (P. aeruginosa; KUB No. 5806, AR Bank #864, no carbapenemase gene) | MIC (P. aeruginosa; KUB No. 5821, AR Bank #516, KPC-2) | MIC80 (P. aeruginosa; 96 strains of P. aeruginosa) | MIC (A. baumannii; Acinetobacter baumannii, A. baumannii KUB No. 5729, AR Bank #296, OXA-23, OXA-223) | MIC (A. baumannii; Acinetobacter baumannii, A. baumannii KUB No. 5737, AR Bank #304, OXA-66, OXA-72)
1 µg/mL: MIC (P. aeruginosa; KUB No. 5801, AR Bank #458, no carbapenemase gene)
8 µg/mL: MIC (P. aeruginosa; KUB No. 5804, AR Bank #862, no carbapenemase gene) | MIC (P. aeruginosa; KUB No. 5831, AR Bank #526, no carbapenemase gene) | MIC (P. aeruginosa; KUB No. 5833, AR Bank #528, no carbapenemase gene) | MIC (P. aeruginosa; KUB No. 5834, AR Bank #529, no carbapenemase gene) | MIC (A. baumannii; Acinetobacter baumannii, A. baumannii KUB No. 5567, AR Bank #70, OXA-58, OXA-100) | MIC (A. baumannii; Acinetobacter baumannii, A. baumannii KUB No. 5714, AR Bank #281, OXA-82) | MIC (A. baumannii; Acinetobacter baumannii, A. baumannii KUB No. 5740, AR Bank #307, OXA-66, OXA-237)
4 µg/mL: MIC (A. baumannii; Acinetobacter baumannii, A. baumannii KUB No. 5709, AR Bank #276, no carbapenemase genes (-)) | MIC (A. baumannii; Acinetobacter baumannii, A. baumannii KUB No. 5745, AR Bank #312, OXA-69)
16 µg/mL: MIC (P. aeruginosa; KUB No. 5793, AR Bank #449, no carbapenemase gene) | MIC (P. aeruginosa; KUB No. 5798, AR Bank #455, no carbapenemase gene) | MIC (P. aeruginosa; KUB No. 5802, AR Bank #459, no carbapenemase gene) | MIC (P. aeruginosa; KUB No. 5813, AR Bank #508, no carbapenemase gene) | MIC (P. aeruginosa; KUB No. 5817, AR Bank #512, no carbapenemase gene) | MIC (P. aeruginosa; KUB No. 5832, AR Bank #527, no carbapenemase gene) | MIC50 (P. aeruginosa; 96 strains of P. aeruginosa) | MIC (A. baumannii; Acinetobacter baumannii, A. baumannii KUB No. 5721, AR Bank #288, OXA-23, OXA-66) | MIC (A. baumannii; Acinetobacter baumannii, A. baumannii KUB No. 5730, AR Bank #297, OXA-23, OXA-66) | MIC (A. baumannii; Acinetobacter baumannii, A. baumannii KUB No. 5731, AR Bank #298, OXA-66, OXA-237) | MIC (A. baumannii; Acinetobacter baumannii, A. baumannii KUB No. 5736, AR Bank #303, OXA-23, OXA-66) | MIC (A. baumannii; Acinetobacter baumannii, A. baumannii KUB No. 5741, AR Bank #308, OXA-71) | MIC (A. baumannii; Acinetobacter baumannii, A. baumannii KUB No. 5746, AR Bank #313, OXA-23, OXA-69)

Reference: EP4635500A1, “THERAPEUTIC AGENT FOR BACTERIAL INFECTION” (Sumitomo Pharma Co., Ltd., priority 2022, dated 2024)
